From US20200297790A1, “HERBAL COMPOSITION FOR PREVENTING OR TREATING BENIGN PROSTATIC HYPERPLASIA DISEASE” (priority 2017, published 2020) come the findings set out here.

Series [1] relates to testosterone-induced benign prostatic hyperplasia rat model. In words: Inhibition of prostate enlargement (prostate weight) in testosterone-induced benign prostatic hyperplasia rat model. The class given is in vivo. The note with it: SD rats, testosterone 3 mg/kg s.c., extracts 300 mg/kg or finasteride 10 mg/kg orally once a day for 30 days. The text has this: (§1) After being acclimated for one week or longer, male SD rats 9 weeks old (weighing 350 g or less) were divided on the basis of weight into (1) a normal group, (2) a benign prostatic hyperplasia-induced and distilled water-administered group (negative control), (3) benign prostatic hyperplasia-induced and composite herbal extract-administered group ([…]), (4) benign prostatic hyperplasia-induced and single Semen Cuscutae herbal extract-administered group (Comparative Example 1-1), (5) benign prostatic hyperplasia-induced and single Semen nelumbinis herbal extract-administered group (Comparative Example 1-2), (6) benign prostatic hyperplasia-induced and single Taraxaci Herba herbal extract-administered group (Comparative Example 1-3), and (7) benign prostatic hyperplasia-induced and finasteride-administered group (positive control). In order to induce benign prostatic hyperplasia, testosterone (dissolved in cotton seed oil) was subcutaneously injected at a dose of 3 mg/kg once/three days for a total of 10 times. For the control, the same amount of cotton seed oil was subcutaneously injected. The composite herbal extract of Preparation Example 1-6 and the single herbal extracts of Comparative Example 1 were each orally administered at a dose of 300 mg/kg once a day for 30 days. […]

The test system is the same in series [2]. In words: Size of acinus in excised prostate tissue (H&E staining) of testosterone-induced benign prostatic hyperplasia rat model. It is filed as in vivo. The note with it: extracts 300 mg/kg or finasteride 10 mg/kg orally, 30 days. The method, then:
For the control, the same amount of cotton seed oil was subcutaneously injected. […] For the negative control, oral administration of distilled water alone was carried out. From the starting day of the test, the rats were weighed five times in total at regular intervals of one week. On the next day after the final administration and treatment, the rats were sacrificed with carbon dioxide gas. The prostate glands were excised and weighed. % Inhibition of prostate enlargement was expressed according to the following mathematical formula on the basis of the weight measurements. […] Slides of the stained tissues were observed and photographed with an optical microscope. From the images, sizes of the acini in the prostate glands were measured. The reduction in the size of acinus of each experimental group is expressed as a percentage relative to the size of acinus of the normal group.

Series [3] can be described thus: Body weight change in testosterone-induced benign prostatic hyperplasia rat model. It is filed as in vivo. The note with it: weighed weekly, five times; extracts 300 mg/kg or finasteride 10 mg/kg orally, 30 days; FIG. 4.
Excerpt: as §1

The next series deals with LNCaP cells. Briefly: Inhibition of testosterone-induced proliferation of prostate epithelial cell line (MTT assay). The class given is cell-based, human. The following applies: 2 μM testosterone alone, 72 hours. The method, then: LNCaP cells, which are the prostate epithelial cells derived from human prostate cancer, were seeded at a density of 1×10^5 cells/well in 24-well plates containing an RPMI medium (Gibco U.S.A) and stabilized overnight. Then, the cells were cultured for 24 hours in a serum-free medium. After removal of the medium, the cells were incubated for 72 hours with 2 μM of testosterone (Tes) alone or in combination with 50, 100, or 200 μg/ml of the composite herbal extract of Preparation Example 1-6 or 4. Thereafter, growth of the cells was evaluated by MTT assay. Cell proliferation data were expressed as percentages of the cell counts relative to that of the Tes-treated group.
LNCaP cells, which are the prostate epithelial cells derived from human prostate cancer, were seeded at a density of 1×10^5 cells/well in 24-well plates containing an RPMI medium (Gibco, U.S.A) and stabilized overnight. […] Thereafter, growth of the cells was evaluated by MTT assay. Cell proliferation data were expressed as percentages of the cell counts relative to that of the Tes-treated group.
LNCaP cells, which are the prostate epithelial cells derived from human prostate cancer, were seeded at a density of 1×10^5 cells/well in 24-well plates containing an RPMI medium (Gibco, U.S.A) and stabilized overnight. […] Thereafter, growth of the cells was evaluated by MTT assay. […]

Compound `CC(C)(C)NC(=O)[C@H]1CC[C@H]2[C@@H]3CC[C@H]4NC(=O)C=C[C@]4(C)[C@H]3CC[C@]12C` [Finasteride] gave a Prostate weight/body weight in series [1] of 1.31 ± 0.10 g/kg. Besides, the “% Inhibition of prostate enlargement” value in series [1] (vs negative control) amounted to 43%. Also, in series [2], the “Reductive effect on size of acinus (%)” value turned out to be 42%. Further, the “Size of acinus (%)” value in series [2] (percentage relative to normal group) is 279 ± 10%. In addition, in series [3], the “body weight difference among testosterone-treated groups” value was “significant differences in body weight were not observed”.
`C[C@]12CC[C@H]3[C@@H](CCC4=CC(=O)CC[C@@]43C)[C@@H]1CC[C@@H]2O` [testosterone]: in the series with LNCaP cells, the “growth of prostate epithelial cells when treated with testosterone” value is recorded as “about 62.5%”.
